# Legend:
# [1] = tested on: MC38 cells; assay: MC38 tumor model in transgenic mice, Compound 6, anti-PD-1 antibody and gemcitabine (Example 5); type: in vivo, C57BL/6-Pdcd1^em(hPDCD1) Cd274^em1(hPD-L1)/Smoc mice; conditions: Day 23; Compound 6 15 mg/kg IP QD × 14; GEM 20 mg/kg IV QW × 2; anti-PD-1 10 mg/kg IP Q5D × 3
# Protocol: MC38 cells were maintained at 37° C. in 5% CO2 in RPMI 1640 medium (10-040-CV, Corning cellgro) supplemented with 10% FBS (10270-106, GIBCO) and used before the 10th subculture.
# Female C57BL/6-Pdcd1^em(hPDCD1) Cd274^em1(hPD-L1)/Smoc mice (Shanghai Model Organisms), 20-25 g, were subcutaneously injected with about 5×10^5 MC38 cells, respectively.
# When tumors grew to 50-70 mm^3, these mice were randomly assigned to 8 groups, 8 mice per group, this day was at Day 9. From Day 9, the animals were administered with gemcitabine (GEM) in saline at 20 mg/mL, an anti-PD-1 antibody (Toripalimab, Shanghai Junshi Biosciences Co., Ltd. China) in saline at 40 mg/mL, Compound 6 in saline at 8 mg/mL, Compound 6+gemcitabine, gemcitabine+anti-PD-1, Compound 6+anti-PD-1, Compound 6+gemcitabine+anti-PD-1, and the control vehicle (5% GS), respectively, according to the dosing regimen shown in Table 11 below.
# Mice were observed every day for their physical conditions and activities, and mice body weight and tumor volume were measured every other day. The tumor volume (V) was calculated as (length×width^2)/2.
# Mice body weights, and tumor sizes were analyzed using the t-test in SPSS, and group differences were deemed statistically significant when the p-value was 0.05 or less.
# Tumor growth inhibition (TGI) was calculated by the following formula. Tumor growth inhibition=(average tumor size in vehicle group-average tumor size in administration group)/average tumor size in vehicle group×100%
# Zheng-Jun Jin's Q value was calculated as described above.
# [2] = Mice body weight in CT-26 WT tumor model (Example 2); type: in vivo, BALB/c female mice; conditions: for Average body weight: compounds 15 mg/kg tail vein once per day, anti-m-PD-1 10 mg/kg IP once every five days
# Protocol: (§1) Mice were observed every day for their physical conditions and activities, and mice body weight and tumor volume were measured every Tuesday, Thursday and Sunday. The tumor volume (V) was calculated as (length×width^2)/2.
# (§2) At Day 23, mice were subject to euthanasia, from which tumors were collected, weighed and photographed. Mice body weights, tumor sizes and tumor weights were analyzed using the t-test in SPSS, and group differences were deemed statistically significant when the p-value was 0.05 or less. Tumor weight based tumor growth inhibition (TGI) and Zheng-Jun Jin's Q value were calculated.
# [3] = tested on: CT-26 WT cells; assay: CT-26 WT subcutaneous tumor model, Compound 6 with anti-m-PD-1 antibody (Example 1); type: in vivo, BALB/c female mice; conditions: Day 27; Compound 6 35 mg/kg tail vein once per day; anti-m-PD-1 10 mg/kg IP once every five days, four times
# Protocol: CT-26 WT cells were maintained at 37° C. in 5% CO2 in RPMI 1640 medium (10-040-CV, Corning cellgro) supplemented with 10% FBS (10270-106, GIBCO) and used before the 10th subculture.
# At Day 0, 45 BALB/c female mice, 4-5 weeks old, were subcutaneously injected with about 200.0 μL of the CT-26 WT cell medium containing about 5×10^5 cells, respectively.
# At Day 5, 32 tumor-bearing mice were randomly assigned to four groups according to their body weights, 8 mice per group. The remaining mice were subject to euthanasia. […]
# as §1
# (§3) At Day 27, mice were subject to euthanasia, from which tumors were collected, weighed and photographed. Mice body weights, tumor sizes and tumor weights were analyzed using the t-test in SPSS, and group differences were deemed statistically significant when the p-value was 0.05 or less.
# Tumor growth inhibition (TGI) was calculated by the following two formulae. […]
# Further, Zheng-Jun Jin's Q value was calculated using the formula Q=EA+B/(EA+EB−EA×EB) to assess the combined effect of the anti-PD-1 antibody and Compound 6, wherein EA+B, EA, and EB referred to the TGIs of the combination therapy, anti-PD-1 administration and Compound 6 administration, respectively. […]
# [4] = Mice body weight and survival in CT-26 WT tumor model (Example 1); type: in vivo, BALB/c female mice; conditions: Day 27; Compound 6 35 mg/kg, anti-m-PD-1 10 mg/kg
# Protocol: as §1, §3
# [5] = tested on: CT-26 WT cells; assay: CT-26 WT subcutaneous tumor model, CHK inhibitors at lower dose with anti-m-PD-1 antibody (Example 2); type: in vivo, BALB/c female mice; conditions: for Average tumor size: compounds 15 mg/kg tail vein once per day, anti-m-PD-1 10 mg/kg IP once every five days
# Protocol: The anti-tumor effect of Compound 6 at a lower dose in combination with an anti-PD-1 antibody was studied in this Example. Further, three compounds obtained by structurally modifying Compound 6, i.e., Compound 6-1, Compound 6-2 and Compound 6-3, were tested alone or in combination with an anti-PD-1 antibody for their anti-tumor effects.
# At Day 0, 105 BALB/c female mice, 4-5 weeks old, were subcutaneously injected with about 200.0 μL of the CT-26 WT cell medium containing about 5×10^5 cells, respectively.
# At Day 5, 80 tumor-bearing mice were randomly assigned to ten groups according to their body weights, 8 mice per group. The remaining mice were subject to euthanasia.
# The ten groups of animals were administered with an anti-m-PD-1 antibody (BE0146, BioXcell) in PBS (21-040-CVR, BioXcell) at 1.0 mg/mL, Compound 6 in saline at 1.5 mg/mL, Compound 6-1 in saline at 1.5 mg/mL, Compound 6-2 in saline at 1.5 mg/mL, Compound 6-3 in saline at 1.5 mg/mL, the anti-m-PD-1 antibody+Compound 6, the anti-m-PD-1 antibody+Compound 6-1, the anti-m-PD-1 antibody+Compound 6-2, the anti-m-PD-1 antibody+Compound 6-3, and the control vehicle (saline), respectively, at doses shown in Table 3 below.
# as §1, §2
# [6] = tested on: MC38 cells; assay: MC38 tumor model in transgenic mice, lower dose of anti-PD-1 antibody (Example 4); type: in vivo, C57BL/6-Pdcd1^em1(hPDCD1) Cd274^em1(hPD-L1)/Smoc mice; conditions: Compound 6 8 mg/kg IP QD × 14; anti-PD-1 or hIgG4 2.5 mg/kg IP BIW × 3
# Protocol: The test of Example 3 was repeated in the same transgenic mouse model using a lower dose of anti-PD-1 antibody, i.e., 2.5 mg/kg anti-PD-1, with some other minor modifications.
# In particular, female C57BL/6-Pdcd1^em1(hPDCD1) Cd274^em1(hPD-L1)/Smoc mice (Shanghai Model Organisms), 5-7 weeks old, were subcutaneously injected with about 3×10^5 MC38 cells, respectively.
# (§4) When tumors grew to 50-100 mm^3, these mice were randomly assigned to four groups, 8 mice per group, this day was designated as Day 0. From Day 0, the animals were administered with an anti-PD-1 antibody (Toripalimab, Shanghai Junshi Biosciences Co., Ltd. China) in 5% GS (5% glucose solution) at 40 mg/mL, an hIgG4 (Novoprotein, NovoPro Bioscience Inc.) in 5% GS at 3.3 mg/mL, Compound 6 in 5% GS at 8 mg/mL in combination with the anti-PD-1 antibody, and Compound 6 in combination with hIgG4, respectively, according to the dosing regimen shown in Table 10 below.
# [7] = tested on: MC38 cells; assay: MC38 tumor model in mPD-1-/- mPD-L1-/- hPD-1+/+ hPD-L1+/+ transgenic mice (Example 3); type: in vivo, C57BL/6-Pdcd1^em1(hPDCD1) Cd274^em1(hPD-L1)/Smoc mice
# Protocol: MC38 cells were maintained at 37° C. in 5% CO2 in RPMI 1640 medium (10-040-CV, Corning cellgro) supplemented with 10% FBS (10270-106, GIBCO, Thermo Fisher Scientific), 100 U/ml penicillin and 100 U/ml streptomycin in 10-cm Petri dishes.
# Female C57BL/6-Pdcd1^em1(hPDCD1) Cd274^em1(hPD-L1)/Smoc mice, 20-25 g (Shanghai Model Organisms), were subcutaneously injected with about 3×10^5 MC38 cells, respectively.
# as §4, with “50-70” for “50-100”, “saline” for “5% GS (5% glucose solution)”, “40.0” for “40”, “saline” for “5% GS”, “8 above.” for “10 below.”
# Mice were observed every day for their physical conditions and activities, and mice body weight and tumor volume were measured twice a week. The tumor volume (V) was calculated as (length×width^2)/2.
# Mice in Group 1 and Group 2 were subjected to euthanasia at Day 14, and those from Group 3 and Group 4 on Day 21, from which tumors were collected and photographed. Mice body weights and tumor sizes were analyzed using the t-test in SPSS, and group differences were deemed statistically significant when the p-value was 0.05 or less. TGI and Zheng-Jun Jin's Q value were calculated.
# [8] = patients receiving various doses; pooled analysis of 14 phase I-III studies; cited from earlier work
# [9] = Day 23, compounds 15 mg/kg, anti-m-PD-1 10 mg/kg
compound,measurement,setting,value
"NC(=O)c1nnc(N[C@H]2CCCNC2)c2cc(-c3cccc(F)c3)sc12 [Compound 6, 2-(3-fluorophenyl)-4-(3-piperidineamino)-thieno[2,3-d]pyridazine-7-carboxylic acid amide]",TGI based on tumor sizes,[1],52.53%
same,Average body weight,[2]; Day 9,16.39 g
same,Average body weight,[2]; Day 10,16.85 g
same,Average body weight,[2]; Day 12,16.87 g
same,Average body weight,[2]; Day 14,17.03 g
same,Average body weight,[2]; Day 16,17.88 g
same,Average body weight,[2]; Day 18,17.89 g
same,Average body weight,[2]; Day 20,18.25 g
same,Average body weight,[2]; Day 22,18.37 g
same,Average body weight,[2]; Day 23,18.98 g
same,"average mice weight, tumor weight deducted",[2]; [9],17.63 g
same,TGI - tumor size,[3],72.74%
same,TGI - tumor weight,[3],77.53%
same,"average mice weight, tumor weight deducted",[4],18.41 g
same,Average tumor size,[5]; Day 9,163.24 mm^3
same,Average tumor size,[5]; Day 10,220.45 mm^3
same,Average tumor size,[5]; Day 12,367.43 mm^3
same,Average tumor size,[5]; Day 14,494.61 mm^3
same,Average tumor size,[5]; Day 16,666.40 mm^3
same,Average tumor size,[5]; Day 18,770.93 mm^3
same,Average tumor size,[5]; Day 20,955.40 mm^3
same,Average tumor size,[5]; Day 22,1094.31 mm^3
same,Average tumor size,[5]; Day 23,1071.65 mm^3
same,Tumor weight based TGI,[5]; [9],52.30%
same,"Tumor weight, Average","[5]; Day 23, group average of 8 mice",1.35 g
same,"Tumor weight, Mouse no. 1","[5]; Day 23, individual mouse",0.95 g
same,"Tumor weight, Mouse no. 2","[5]; Day 23, individual mouse",0.28 g
same,"Tumor weight, Mouse no. 3","[5]; Day 23, individual mouse",0.59 g
same,"Tumor weight, Mouse no. 4","[5]; Day 23, individual mouse",2.43 g
same,"Tumor weight, Mouse no. 5","[5]; Day 23, individual mouse",2.97 g
same,"Tumor weight, Mouse no. 6","[5]; Day 23, individual mouse",0.97 g
same,"Tumor weight, Mouse no. 7","[5]; Day 23, individual mouse",2.04 g
same,"Tumor weight, Mouse no. 8","[5]; Day 23, individual mouse",0.57 g
Toripalimab [anti-PD-1],TGI based on tumor sizes,[1],17.05%
same,TGI,[6],46.95%
same,Average tumor size,"[7]; Day 0 (day of grouping, start of dosing)",59.1 ± 0.4 mm^3
same,Average tumor size,"[7]; Day 14, Compound 6 8 mg/kg IP QD Day 0-13, anti-PD-1 or hIgG4 3 mg/kg IP Q2D",792.1 ± 207.1 mm^3
same,TGI (%) on D14,"[7]; Day 14, Compound 6 8 mg/kg IP QD, anti-PD-1 or hIgG4 3 mg/kg IP Q2D",58%
ipilimumab,patients who experienced immune-related adverse effects,[8],64%

# Reference: US20240009190A1, “COMBINATION CANCER THERAPY USING CHK INHIBITOR” (SHANGHAI HUAYU BIOTECHNOLOGY CO., LTD., priority 2020, published 2024)
